# Experimental data from patent US20180071242A1, “SUBSTITUTED ACYLANILIDES AND METHODS OF USE THEREOF” (University of Tennessee Research Foundation, priority 2006, published 2018).
# Assays:
# [1] = target: T1, Recombinant androgen receptor ligand binding domain (AR LBD) (Homo sapiens, UniProt P10275); experiment: In vitro competitive radioligand binding assay with [3H]mibolerone
# T1 sequence (P10275 669-900 limits assumed): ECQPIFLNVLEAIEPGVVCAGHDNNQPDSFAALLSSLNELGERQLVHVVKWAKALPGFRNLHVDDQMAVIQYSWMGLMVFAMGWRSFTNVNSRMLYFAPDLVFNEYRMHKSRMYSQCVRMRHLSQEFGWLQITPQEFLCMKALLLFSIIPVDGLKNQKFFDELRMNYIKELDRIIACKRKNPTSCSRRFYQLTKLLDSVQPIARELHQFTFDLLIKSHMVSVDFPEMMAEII
# Method: Following incubation, plates were harvested with GF/B filters on the Unifilter-96 Harvester (PerkinElmer) and washed three times with ice-cold buffer B (60 mM Tris, pH 7.2). The filter plates were dried at RT, then 36 μl Microscint-O® cocktail was added to each well and sealed with TopSeal-A®. The receptor bound radioligand was then determined with the TopCount® NXT Microplate Scintillation Counter (PerkinElmer).
# The equilibrium binding constant (Ki) of each compound was then determined with the following equation:
# [2] = target: T2, ER-β (Rattus norvegicus, UniProt Q62986); experiment: Transient transfection luciferase transactivation assay in HEK-293 cells; format: cell-based; conditions: for ER-β transactivation, agonist mode (in words): up to the highest tested concentration (1 μM); for Inhibition of estradiol-induced ER-β activity, antagonist mode (in words): with 1 nM estradiol
# T2 construct: expressed in transfected cells; host or cells: HEK-293
# T2 sequence (Q62986 whole entry): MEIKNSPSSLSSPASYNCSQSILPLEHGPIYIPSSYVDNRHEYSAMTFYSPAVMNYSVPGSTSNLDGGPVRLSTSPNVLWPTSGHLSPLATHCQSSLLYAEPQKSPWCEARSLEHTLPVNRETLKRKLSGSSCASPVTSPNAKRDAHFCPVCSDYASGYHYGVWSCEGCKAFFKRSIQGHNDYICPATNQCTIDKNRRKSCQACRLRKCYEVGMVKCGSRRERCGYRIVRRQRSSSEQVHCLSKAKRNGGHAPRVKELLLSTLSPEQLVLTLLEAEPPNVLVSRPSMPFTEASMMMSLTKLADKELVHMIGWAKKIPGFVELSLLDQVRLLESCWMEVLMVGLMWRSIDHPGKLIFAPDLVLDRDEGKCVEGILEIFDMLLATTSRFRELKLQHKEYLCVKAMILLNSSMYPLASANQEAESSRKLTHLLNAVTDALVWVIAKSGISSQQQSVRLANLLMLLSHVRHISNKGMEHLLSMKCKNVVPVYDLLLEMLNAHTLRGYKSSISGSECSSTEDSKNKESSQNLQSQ
# [3] = target: T3, CYP2C9 (Homo sapiens, UniProt P11712); experiment: CYP inhibition screening, recombinant enzyme (fluorescent-based) assay; format: in vitro ADME; conditions: for Inhibition of CYP2C9 activity (in words): human, 30 min
# T3 construct: purchased Gentest, BD Biosciences
# T3 sequence (P11712 whole entry): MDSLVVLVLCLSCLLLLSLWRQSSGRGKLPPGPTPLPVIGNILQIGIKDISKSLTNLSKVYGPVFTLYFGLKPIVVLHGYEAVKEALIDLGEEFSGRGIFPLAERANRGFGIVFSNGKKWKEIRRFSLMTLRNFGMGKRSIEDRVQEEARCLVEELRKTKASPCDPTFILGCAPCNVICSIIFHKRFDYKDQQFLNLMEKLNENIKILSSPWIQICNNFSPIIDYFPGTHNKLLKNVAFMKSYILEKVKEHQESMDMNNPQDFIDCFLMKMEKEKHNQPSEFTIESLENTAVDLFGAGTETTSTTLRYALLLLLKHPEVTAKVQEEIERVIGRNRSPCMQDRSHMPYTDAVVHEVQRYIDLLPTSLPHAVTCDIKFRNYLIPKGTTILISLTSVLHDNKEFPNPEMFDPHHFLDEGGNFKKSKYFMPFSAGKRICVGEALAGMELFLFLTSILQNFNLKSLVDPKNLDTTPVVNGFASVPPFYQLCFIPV
# [4] = target: T4, PR (Rattus norvegicus, UniProt Q63449); experiment: Transient transfection luciferase transactivation assay in HEK-293 cells; format: cell-based; conditions: for PR-mediated transactivation, agonist mode (in words): all tested concentrations
# T4 construct: expressed in transfected cells; host or cells: HEK-293
# T4 sequence (Q63449 1-923): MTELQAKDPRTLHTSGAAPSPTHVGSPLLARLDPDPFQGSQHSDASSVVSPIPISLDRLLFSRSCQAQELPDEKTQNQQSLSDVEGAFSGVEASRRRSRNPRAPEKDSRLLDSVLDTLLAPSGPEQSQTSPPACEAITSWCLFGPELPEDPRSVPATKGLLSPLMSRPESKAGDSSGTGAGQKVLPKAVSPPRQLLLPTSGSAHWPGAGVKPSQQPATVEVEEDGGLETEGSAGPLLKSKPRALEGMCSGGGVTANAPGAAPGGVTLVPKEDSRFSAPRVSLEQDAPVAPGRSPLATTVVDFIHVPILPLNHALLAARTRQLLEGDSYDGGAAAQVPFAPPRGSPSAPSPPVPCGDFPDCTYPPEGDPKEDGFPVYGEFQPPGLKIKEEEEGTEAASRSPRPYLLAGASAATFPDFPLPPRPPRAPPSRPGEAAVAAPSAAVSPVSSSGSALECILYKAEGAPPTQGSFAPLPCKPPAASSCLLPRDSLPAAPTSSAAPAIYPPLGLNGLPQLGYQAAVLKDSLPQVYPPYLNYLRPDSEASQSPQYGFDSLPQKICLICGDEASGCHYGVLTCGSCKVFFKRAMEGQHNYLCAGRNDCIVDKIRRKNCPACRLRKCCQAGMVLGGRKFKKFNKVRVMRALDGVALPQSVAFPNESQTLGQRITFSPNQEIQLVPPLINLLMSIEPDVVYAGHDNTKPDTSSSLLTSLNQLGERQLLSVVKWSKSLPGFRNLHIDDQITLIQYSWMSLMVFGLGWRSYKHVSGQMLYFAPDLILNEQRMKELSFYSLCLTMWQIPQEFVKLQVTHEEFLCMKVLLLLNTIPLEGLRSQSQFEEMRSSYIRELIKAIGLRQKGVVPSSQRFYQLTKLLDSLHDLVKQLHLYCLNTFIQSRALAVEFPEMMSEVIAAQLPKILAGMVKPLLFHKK
# [5] = target: T5, CYP1A2 (Homo sapiens, UniProt P05177); experiment: CYP inhibition screening, recombinant enzyme (fluorescent-based) assay
# T5 sequence (P05177 1-516): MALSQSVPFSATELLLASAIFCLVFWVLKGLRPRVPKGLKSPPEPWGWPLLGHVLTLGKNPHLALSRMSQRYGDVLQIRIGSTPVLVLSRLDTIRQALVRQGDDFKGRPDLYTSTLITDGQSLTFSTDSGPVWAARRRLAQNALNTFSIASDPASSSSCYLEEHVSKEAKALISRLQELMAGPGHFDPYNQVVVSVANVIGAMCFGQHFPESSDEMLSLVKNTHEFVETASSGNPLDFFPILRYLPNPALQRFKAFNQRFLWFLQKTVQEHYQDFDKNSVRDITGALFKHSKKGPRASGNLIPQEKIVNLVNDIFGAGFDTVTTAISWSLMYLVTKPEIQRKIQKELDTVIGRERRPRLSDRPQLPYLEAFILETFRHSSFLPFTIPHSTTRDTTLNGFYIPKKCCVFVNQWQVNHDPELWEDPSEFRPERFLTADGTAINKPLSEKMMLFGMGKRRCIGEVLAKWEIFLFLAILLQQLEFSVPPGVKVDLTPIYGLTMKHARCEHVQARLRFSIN
# Method: (§1) Human recombinant CYP enzymes and fluorescence-based substrates were used to determine the IC50 values of S-(I) against CYP3A4, 2D6, 2C19, 2C9, and 1A2.
# (§2) CYP inhibition screening procedures were performed essentially according to the manufacturer's instructions (Gentest, BD Biosciences, Waltham, Mass.). Briefly, CYP enzyme inhibition was measured using human cDNA-expressed CYP3A4, 2D6, 2C19, 2C9, and 1A2 enzymes. Analogs of the model substrate coumarin were utilized for each isoenzyme.
# (§3) The concentration of acetonitrile was kept constant at 0.4%, and the reaction was carried out at 37° C. for 30 minutes.
# (§4) For IC50 determination, data was fitted using the non-linear regression equation “sigmoidal dose response, variable slope” defined as: Y=Bottom+(Top-Bottom)/(1+10̂((Log EC50−X)*HillSlope)) where X is the logarithm of concentration of the indicated compound, and Y is the response.
# [6] = target: CYP2D6 (Homo sapiens, UniProt P10635); experiment: as above
# Sequence of CYP2D6 (P10635 whole entry): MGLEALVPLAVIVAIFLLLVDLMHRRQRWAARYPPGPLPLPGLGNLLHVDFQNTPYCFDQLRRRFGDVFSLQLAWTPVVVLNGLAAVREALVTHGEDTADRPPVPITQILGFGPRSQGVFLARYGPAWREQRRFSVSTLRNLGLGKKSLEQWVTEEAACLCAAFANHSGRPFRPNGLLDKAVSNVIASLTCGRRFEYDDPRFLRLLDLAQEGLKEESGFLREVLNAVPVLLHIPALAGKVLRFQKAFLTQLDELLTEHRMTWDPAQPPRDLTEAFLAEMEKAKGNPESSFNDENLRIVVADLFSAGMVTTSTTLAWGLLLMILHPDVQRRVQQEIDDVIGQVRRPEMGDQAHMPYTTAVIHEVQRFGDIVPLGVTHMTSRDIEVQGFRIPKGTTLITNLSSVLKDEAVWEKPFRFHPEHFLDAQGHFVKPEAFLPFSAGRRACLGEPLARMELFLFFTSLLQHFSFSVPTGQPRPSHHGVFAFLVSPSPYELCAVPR
# Method: as §1, §2, §3, §4
# [7] = 1 and 10 μM, with 1 nM progesterone
SMILES,Ki [1],"ER-β transactivation, agonist mode (in words) [2]","Inhibition of estradiol-induced ER-β activity, antagonist mode (in words) [2]",IC50 [3],Inhibition of CYP2C9 activity (in words) [3],"Inhibition of PR activity, antagonist mode (in words) ([4]; 0.1 μM and 10 μM)","Increase of PR transactivation, agonist mode ([4]; 1 μM)","Inhibition of PR-mediated transactivation, antagonist mode (in words) ([4]; 1 μM)","Increase of PR transactivation, agonist mode ([4]; 10 μM)","PR-mediated transactivation, agonist mode (in words) [4]",PR antagonistic activity relative to RU486 (fold weaker) ([4]; versus RU486),PR agonist potency relative to progesterone (fold weaker) ([4]; versus endogenous agonist progesterone),IC50 [5],IC50 [6],"Inhibition of PR activity, antagonist mode (in words) [4, 7]"
"C[C@](O)(COc1ccc(C#N)cc1)C(=O)Nc1ccc(C#N)c(Cl)c1 [S-(I), (S)—N-(3-chloro-4-cyanophenyl)-3-(4-cyanophenoxy)-2-hydroxy-2-methylpropanamide]",0.0369 µM,failed to activate,failed to alter,5.1 µM,did not appreciably inhibit,significantly partially inhibited,3 fold,completely inhibited,8 fold,partial agonist activity,"about 1,000 fold","greater than 10,000 fold",> 20 µM,> 20 µM,–
C[C@](O)(COc1ccc(Cl)cc1)C(=O)Nc1ccc(C#N)c(C(F)(F)F)c1 [S-(II)],–,failed to activate,failed to alter,3.8 µM,moderate inhibition,–,–,–,–,did not induce,–,–,> 20 µM,> 20 µM,significantly inhibited
C[C@](O)(COc1ccc(F)cc1)C(=O)Nc1ccc(C#N)c(C(F)(F)F)c1 [S-(III)],–,failed to activate,failed to alter,1.3 µM,moderate inhibition,–,–,–,–,did not induce,–,–,> 20 µM,> 20 µM,significantly inhibited
